One experiment deals with DYRK1B (human) (UniProt Q9Y463). In words: radiometric filter-binding kinase assay, Kinase HotSpot. Conditions: compound 0.5 µM; ATP 10 µM.
Chain of DCLK2 (human) (Q8N568 whole entry, looked up): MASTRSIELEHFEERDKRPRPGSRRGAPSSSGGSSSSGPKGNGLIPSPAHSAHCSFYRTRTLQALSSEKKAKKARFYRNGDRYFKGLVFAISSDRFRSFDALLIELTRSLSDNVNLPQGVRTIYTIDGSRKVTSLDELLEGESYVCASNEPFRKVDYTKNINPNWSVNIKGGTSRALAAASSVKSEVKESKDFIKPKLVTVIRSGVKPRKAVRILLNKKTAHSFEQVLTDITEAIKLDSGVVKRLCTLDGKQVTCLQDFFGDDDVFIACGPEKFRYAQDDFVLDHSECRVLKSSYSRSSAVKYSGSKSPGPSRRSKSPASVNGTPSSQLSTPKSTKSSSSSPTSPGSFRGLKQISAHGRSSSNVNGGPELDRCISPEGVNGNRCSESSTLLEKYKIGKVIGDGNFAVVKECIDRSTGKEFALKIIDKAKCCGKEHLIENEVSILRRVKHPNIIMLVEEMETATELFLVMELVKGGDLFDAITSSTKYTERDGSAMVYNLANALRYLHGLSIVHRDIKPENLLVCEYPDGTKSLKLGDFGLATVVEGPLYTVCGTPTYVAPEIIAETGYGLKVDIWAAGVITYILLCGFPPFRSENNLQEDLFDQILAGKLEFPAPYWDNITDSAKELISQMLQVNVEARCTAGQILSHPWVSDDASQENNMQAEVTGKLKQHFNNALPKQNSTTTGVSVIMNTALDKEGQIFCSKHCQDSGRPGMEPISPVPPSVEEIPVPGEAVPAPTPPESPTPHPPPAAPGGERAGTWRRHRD
Chain of PIM1 (human) (P11309 whole entry, looked up): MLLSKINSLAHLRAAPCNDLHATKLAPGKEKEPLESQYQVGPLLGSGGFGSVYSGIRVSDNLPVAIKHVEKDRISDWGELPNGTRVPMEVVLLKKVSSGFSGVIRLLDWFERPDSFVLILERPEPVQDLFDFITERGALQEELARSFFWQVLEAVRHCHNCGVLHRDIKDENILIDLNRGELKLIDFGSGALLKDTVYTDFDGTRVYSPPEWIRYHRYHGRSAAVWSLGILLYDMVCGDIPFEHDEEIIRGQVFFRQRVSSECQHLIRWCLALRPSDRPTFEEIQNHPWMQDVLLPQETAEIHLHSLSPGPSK
Chain of CDK2 CCNA2 (human) (P20248 whole entry, looked up, other chains not shown): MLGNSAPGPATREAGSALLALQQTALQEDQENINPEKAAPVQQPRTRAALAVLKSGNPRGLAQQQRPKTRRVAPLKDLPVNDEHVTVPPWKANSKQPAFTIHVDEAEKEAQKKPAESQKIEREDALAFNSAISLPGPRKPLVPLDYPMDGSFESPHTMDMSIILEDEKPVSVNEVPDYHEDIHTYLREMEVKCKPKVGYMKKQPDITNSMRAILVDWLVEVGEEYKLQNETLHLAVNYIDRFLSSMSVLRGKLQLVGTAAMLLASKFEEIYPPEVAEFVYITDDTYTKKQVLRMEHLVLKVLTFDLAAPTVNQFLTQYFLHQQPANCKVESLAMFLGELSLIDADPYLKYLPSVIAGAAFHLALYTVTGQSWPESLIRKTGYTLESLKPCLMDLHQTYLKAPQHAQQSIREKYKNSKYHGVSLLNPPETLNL
Chain of PAK2 (human) (Q13177 whole entry, looked up): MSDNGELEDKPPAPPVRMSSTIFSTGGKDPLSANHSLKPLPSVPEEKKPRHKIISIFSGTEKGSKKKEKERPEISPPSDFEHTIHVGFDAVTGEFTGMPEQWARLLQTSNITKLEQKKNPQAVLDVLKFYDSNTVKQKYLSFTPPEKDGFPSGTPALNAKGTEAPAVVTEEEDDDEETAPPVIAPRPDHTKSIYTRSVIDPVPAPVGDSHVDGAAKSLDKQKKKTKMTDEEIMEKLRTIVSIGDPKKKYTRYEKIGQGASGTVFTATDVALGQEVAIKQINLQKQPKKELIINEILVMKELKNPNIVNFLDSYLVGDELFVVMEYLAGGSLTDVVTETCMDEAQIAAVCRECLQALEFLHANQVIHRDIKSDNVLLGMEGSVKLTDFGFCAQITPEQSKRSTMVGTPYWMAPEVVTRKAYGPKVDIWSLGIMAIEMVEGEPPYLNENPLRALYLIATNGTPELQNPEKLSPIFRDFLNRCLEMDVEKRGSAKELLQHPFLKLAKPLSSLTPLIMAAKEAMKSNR
The term residual activity denotes the signal under treatment as a percentage of the control signal. On to `Nc1cccc(-c2cc3c(Oc4cccc(O)c4)ncnc3[nH]2)c1`, for which the residual activity was 100%.

In the case of `CC[n+]1c(/C=C/N(C)c2ccccc2)n(-c2ccccc2)c2ccc(-c3nc4ccccc4s3)cc21`, the residual activity was 101%.

The next experiment addresses AKT1 (human) (UniProt P31749). Described as above. Conditions: compound 0.5 µM; ATP 10 µM.
With `O=C(Nc1cccc(Nc2nccc(Nc3cccc(C(F)(F)F)c3)n2)c1)C1CC1`, the residual activity came out at 109%.

As to `Nc1cccc(-c2cc3c(Oc4cccc(O)c4)ncnc3[nH]2)c1`, the residual activity was 92.5%.

On to `CC[n+]1c(/C=C/N(C)c2ccccc2)n(-c2ccccc2)c2ccc(-c3nc4ccccc4s3)cc21`, for which the residual activity is 104%.

The target of the next experiment is ACVRL1 (human) (UniProt P37023). The experiment is described as above. Conditions: compound 0.5 µM; ATP 10 µM.
Chain of ACVRL1 (human) (P37023 whole entry, looked up): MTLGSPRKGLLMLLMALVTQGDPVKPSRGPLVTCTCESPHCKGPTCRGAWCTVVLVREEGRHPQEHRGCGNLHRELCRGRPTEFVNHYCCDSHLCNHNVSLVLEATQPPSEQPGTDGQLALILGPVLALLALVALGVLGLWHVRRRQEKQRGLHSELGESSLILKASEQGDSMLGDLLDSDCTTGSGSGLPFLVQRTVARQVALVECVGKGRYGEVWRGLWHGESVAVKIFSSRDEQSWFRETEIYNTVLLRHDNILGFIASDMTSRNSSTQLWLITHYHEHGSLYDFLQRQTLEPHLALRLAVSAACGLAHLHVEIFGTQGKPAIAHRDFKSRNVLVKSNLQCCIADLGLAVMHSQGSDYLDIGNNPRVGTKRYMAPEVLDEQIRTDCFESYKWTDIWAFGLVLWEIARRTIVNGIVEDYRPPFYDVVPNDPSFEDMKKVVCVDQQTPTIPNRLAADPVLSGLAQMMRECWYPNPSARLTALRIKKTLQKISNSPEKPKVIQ
As to `O=C(Nc1cccc(Nc2nccc(Nc3cccc(C(F)(F)F)c3)n2)c1)C1CC1`, the residual activity came to 84.6%.

Regarding `Nc1cccc(-c2cc3c(Oc4cccc(O)c4)ncnc3[nH]2)c1`, the residual activity amounted to 70.3%.

Consider `CC[n+]1c(/C=C/N(C)c2ccccc2)n(-c2ccccc2)c2ccc(-c3nc4ccccc4s3)cc21`, for which the residual activity was determined as 110%.

A further experiment has as its target PAK2 (human) (UniProt Q13177). Described as above. Conditions: compound 0.5 µM; ATP 10 µM.
In the case of `O=C(Nc1cccc(Nc2nccc(Nc3cccc(C(F)(F)F)c3)n2)c1)C1CC1`, the residual activity came out at 105%.

With `Nc1cccc(-c2cc3c(Oc4cccc(O)c4)ncnc3[nH]2)c1`, the residual activity stood at 88.9%.

As for `CC[n+]1c(/C=C/N(C)c2ccccc2)n(-c2ccccc2)c2ccc(-c3nc4ccccc4s3)cc21`, the residual activity was determined as 97.3%.

Another experiment deals with TNK2 (human) (UniProt Q07912). The description is as above. Conditions: compound 0.5 µM; ATP 10 µM.
Take `O=C(Nc1cccc(Nc2nccc(Nc3cccc(C(F)(F)F)c3)n2)c1)C1CC1`: the residual activity worked out at 66.5%.

With `Nc1cccc(-c2cc3c(Oc4cccc(O)c4)ncnc3[nH]2)c1`, the residual activity came to 19.6%.

`CC[n+]1c(/C=C/N(C)c2ccccc2)n(-c2ccccc2)c2ccc(-c3nc4ccccc4s3)cc21`: the residual activity was 98%.

A further experiment has as its target CAMK1 (human) (UniProt Q14012). The description is as above. Particulars: compound 0.5 µM; ATP 10 µM.
In the case of `O=C(Nc1cccc(Nc2nccc(Nc3cccc(C(F)(F)F)c3)n2)c1)C1CC1`, the residual activity amounted to 95.5%.

As to `Nc1cccc(-c2cc3c(Oc4cccc(O)c4)ncnc3[nH]2)c1`, the residual activity is 112%.

With `CC[n+]1c(/C=C/N(C)c2ccccc2)n(-c2ccccc2)c2ccc(-c3nc4ccccc4s3)cc21`, the residual activity was determined as 94.4%.

The target of another experiment is CSNK2A1 (human) (UniProt P68400). The experiment is described as above. Conditions: compound 0.5 µM; ATP 10 µM.
Chain of CSNK2A1 (human) (P68400 whole entry, looked up): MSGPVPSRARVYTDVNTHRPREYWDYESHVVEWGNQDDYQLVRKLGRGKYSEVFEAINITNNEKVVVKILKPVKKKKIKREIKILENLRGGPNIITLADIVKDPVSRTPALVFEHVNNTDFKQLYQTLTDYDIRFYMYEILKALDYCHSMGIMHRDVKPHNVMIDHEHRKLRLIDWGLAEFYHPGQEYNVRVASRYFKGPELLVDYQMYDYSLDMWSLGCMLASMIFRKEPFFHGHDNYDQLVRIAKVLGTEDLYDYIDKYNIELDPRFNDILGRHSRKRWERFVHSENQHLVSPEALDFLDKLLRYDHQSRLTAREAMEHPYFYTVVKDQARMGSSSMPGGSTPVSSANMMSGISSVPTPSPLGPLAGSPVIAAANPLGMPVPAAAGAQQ
As to `O=C(Nc1cccc(Nc2nccc(Nc3cccc(C(F)(F)F)c3)n2)c1)C1CC1`, the residual activity came to 94.1%.

`Nc1cccc(-c2cc3c(Oc4cccc(O)c4)ncnc3[nH]2)c1`: the residual activity stood at 96.8%.

As for `CC[n+]1c(/C=C/N(C)c2ccccc2)n(-c2ccccc2)c2ccc(-c3nc4ccccc4s3)cc21`, the residual activity was 96.8%.

The next experiment addresses MET (human) (UniProt P08581). The description is as above. Conditions: compound 0.5 µM; ATP 10 µM.
`O=C(Nc1cccc(Nc2nccc(Nc3cccc(C(F)(F)F)c3)n2)c1)C1CC1`: the residual activity worked out at 87.7%.

On to `Nc1cccc(-c2cc3c(Oc4cccc(O)c4)ncnc3[nH]2)c1`, for which the residual activity came to 110%.

For `CC[n+]1c(/C=C/N(C)c2ccccc2)n(-c2ccccc2)c2ccc(-c3nc4ccccc4s3)cc21`, the residual activity amounted to 108%.

For the next experiment, the target named is MAPK12 (human) (UniProt P53778). Described as above. Particulars: compound 0.5 µM; ATP 10 µM.
Chain of MAPK12 (human) (P53778 whole entry, looked up): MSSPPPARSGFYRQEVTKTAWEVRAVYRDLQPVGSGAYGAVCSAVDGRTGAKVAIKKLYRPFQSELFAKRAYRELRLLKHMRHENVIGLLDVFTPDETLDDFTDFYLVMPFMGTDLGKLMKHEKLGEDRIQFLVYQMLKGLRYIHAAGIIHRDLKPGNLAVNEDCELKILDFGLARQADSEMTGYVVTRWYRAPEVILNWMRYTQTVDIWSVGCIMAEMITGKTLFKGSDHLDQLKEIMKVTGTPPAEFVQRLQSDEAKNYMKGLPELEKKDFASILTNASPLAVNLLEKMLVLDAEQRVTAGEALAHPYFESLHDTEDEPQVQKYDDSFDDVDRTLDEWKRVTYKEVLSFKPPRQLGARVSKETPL
In the case of `O=C(Nc1cccc(Nc2nccc(Nc3cccc(C(F)(F)F)c3)n2)c1)C1CC1`, the residual activity came to 99.7%.

For `Nc1cccc(-c2cc3c(Oc4cccc(O)c4)ncnc3[nH]2)c1`, the residual activity is 88.6%.

In the case of `CC[n+]1c(/C=C/N(C)c2ccccc2)n(-c2ccccc2)c2ccc(-c3nc4ccccc4s3)cc21`, the residual activity amounted to 105%.

For the next experiment, the target named is ALK (human) (UniProt Q9UM73). The experiment is described as above. Particulars: compound 0.5 µM; ATP 10 µM.
`O=C(Nc1cccc(Nc2nccc(Nc3cccc(C(F)(F)F)c3)n2)c1)C1CC1`: the residual activity was 99.8%.

As to `Nc1cccc(-c2cc3c(Oc4cccc(O)c4)ncnc3[nH]2)c1`, the residual activity is 80.9%.

As for `CC[n+]1c(/C=C/N(C)c2ccccc2)n(-c2ccccc2)c2ccc(-c3nc4ccccc4s3)cc21`, the residual activity came to 99.1%.

The next experiment has as its target ULK2 (human) (UniProt Q8IYT8). Described as above. Particulars: compound 0.5 µM; ATP 10 µM.
For `O=C(Nc1cccc(Nc2nccc(Nc3cccc(C(F)(F)F)c3)n2)c1)C1CC1`, the residual activity was found to be 107%.

`Nc1cccc(-c2cc3c(Oc4cccc(O)c4)ncnc3[nH]2)c1`: the residual activity came out at 97.5%.

With `CC[n+]1c(/C=C/N(C)c2ccccc2)n(-c2ccccc2)c2ccc(-c3nc4ccccc4s3)cc21`, the residual activity was 109%.

Another experiment concerns the target PIM1 (human) (UniProt P11309). The description is as above. Particulars: compound 0.5 µM; ATP 10 µM.
Take `O=C(Nc1cccc(Nc2nccc(Nc3cccc(C(F)(F)F)c3)n2)c1)C1CC1`: the residual activity stood at 103%.

For the compound `Nc1cccc(-c2cc3c(Oc4cccc(O)c4)ncnc3[nH]2)c1`, the residual activity is 85.9%.

Consider `CC[n+]1c(/C=C/N(C)c2ccccc2)n(-c2ccccc2)c2ccc(-c3nc4ccccc4s3)cc21`, for which the residual activity came to 102%.

The target in the next experiment is PHKG2 (human) (UniProt P15735). The experiment is described as above. Conditions: compound 0.5 µM; ATP 10 µM.
For `O=C(Nc1cccc(Nc2nccc(Nc3cccc(C(F)(F)F)c3)n2)c1)C1CC1`, the residual activity stood at 107%.

Regarding `Nc1cccc(-c2cc3c(Oc4cccc(O)c4)ncnc3[nH]2)c1`, the residual activity was 109%.

For the compound `CC[n+]1c(/C=C/N(C)c2ccccc2)n(-c2ccccc2)c2ccc(-c3nc4ccccc4s3)cc21`, the residual activity was found to be 102%.

The target in another experiment is DYRK3 (human) (UniProt O43781). The description is as above. Particulars: compound 0.5 µM; ATP 10 µM.
Chain of DYRK3 (human) (O43781 whole entry, looked up): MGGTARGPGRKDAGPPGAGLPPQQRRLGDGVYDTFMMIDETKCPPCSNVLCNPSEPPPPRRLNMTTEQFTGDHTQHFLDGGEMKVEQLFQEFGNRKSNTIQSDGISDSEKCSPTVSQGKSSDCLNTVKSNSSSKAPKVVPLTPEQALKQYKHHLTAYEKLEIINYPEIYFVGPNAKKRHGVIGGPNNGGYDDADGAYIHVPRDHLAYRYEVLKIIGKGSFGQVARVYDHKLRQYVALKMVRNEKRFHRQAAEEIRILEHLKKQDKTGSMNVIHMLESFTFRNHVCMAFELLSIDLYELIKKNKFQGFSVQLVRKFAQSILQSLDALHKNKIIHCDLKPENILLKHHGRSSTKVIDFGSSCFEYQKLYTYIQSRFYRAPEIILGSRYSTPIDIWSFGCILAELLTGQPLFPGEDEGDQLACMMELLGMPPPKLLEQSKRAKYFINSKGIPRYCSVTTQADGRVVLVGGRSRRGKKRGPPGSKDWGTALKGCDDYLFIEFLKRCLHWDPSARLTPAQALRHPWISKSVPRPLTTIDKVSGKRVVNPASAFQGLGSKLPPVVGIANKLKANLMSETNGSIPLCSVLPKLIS
Regarding `O=C(Nc1cccc(Nc2nccc(Nc3cccc(C(F)(F)F)c3)n2)c1)C1CC1`, the residual activity was 101%.

On to `Nc1cccc(-c2cc3c(Oc4cccc(O)c4)ncnc3[nH]2)c1`, for which the residual activity turned out to be 89.8%.

Take `CC[n+]1c(/C=C/N(C)c2ccccc2)n(-c2ccccc2)c2ccc(-c3nc4ccccc4s3)cc21`: the residual activity worked out at 98.7%.

Another experiment addresses MAP4K5 (human) (UniProt Q9Y4K4). The experiment is described as above. Particulars: compound 0.5 µM; ATP 10 µM.
With `O=C(Nc1cccc(Nc2nccc(Nc3cccc(C(F)(F)F)c3)n2)c1)C1CC1`, the residual activity worked out at 94.9%.

Turning to `Nc1cccc(-c2cc3c(Oc4cccc(O)c4)ncnc3[nH]2)c1`, the residual activity came to 18.4%.

For `CC[n+]1c(/C=C/N(C)c2ccccc2)n(-c2ccccc2)c2ccc(-c3nc4ccccc4s3)cc21`, the residual activity was determined as 91.7%.

Another experiment has as its target CDK2 CCNA2 (human) (UniProt P24941+P20248). Described as above. Particulars: compound 0.5 µM; ATP 10 µM.
On to `O=C(Nc1cccc(Nc2nccc(Nc3cccc(C(F)(F)F)c3)n2)c1)C1CC1`, for which the residual activity was 98.2%.

As to `Nc1cccc(-c2cc3c(Oc4cccc(O)c4)ncnc3[nH]2)c1`, the residual activity stood at 88.5%.

Turning to `CC[n+]1c(/C=C/N(C)c2ccccc2)n(-c2ccccc2)c2ccc(-c3nc4ccccc4s3)cc21`, the residual activity worked out at 100%.

In a further experiment the target is EPHA4 (human) (UniProt P54764). Described as above. Particulars: compound 0.5 µM; ATP 10 µM.
Take `O=C(Nc1cccc(Nc2nccc(Nc3cccc(C(F)(F)F)c3)n2)c1)C1CC1`: the residual activity was 81%.

As to `Nc1cccc(-c2cc3c(Oc4cccc(O)c4)ncnc3[nH]2)c1`, the residual activity was found to be 48.3%.

For `CC[n+]1c(/C=C/N(C)c2ccccc2)n(-c2ccccc2)c2ccc(-c3nc4ccccc4s3)cc21`, the residual activity turned out to be 91.9%.

The target of a further experiment is RPS6KA5 KD2 (human) (UniProt O75582). The description is as above. Particulars: compound 0.5 µM; ATP 10 µM.
Chain of RPS6KA5 KD2 (human) (O75582 whole entry, looked up): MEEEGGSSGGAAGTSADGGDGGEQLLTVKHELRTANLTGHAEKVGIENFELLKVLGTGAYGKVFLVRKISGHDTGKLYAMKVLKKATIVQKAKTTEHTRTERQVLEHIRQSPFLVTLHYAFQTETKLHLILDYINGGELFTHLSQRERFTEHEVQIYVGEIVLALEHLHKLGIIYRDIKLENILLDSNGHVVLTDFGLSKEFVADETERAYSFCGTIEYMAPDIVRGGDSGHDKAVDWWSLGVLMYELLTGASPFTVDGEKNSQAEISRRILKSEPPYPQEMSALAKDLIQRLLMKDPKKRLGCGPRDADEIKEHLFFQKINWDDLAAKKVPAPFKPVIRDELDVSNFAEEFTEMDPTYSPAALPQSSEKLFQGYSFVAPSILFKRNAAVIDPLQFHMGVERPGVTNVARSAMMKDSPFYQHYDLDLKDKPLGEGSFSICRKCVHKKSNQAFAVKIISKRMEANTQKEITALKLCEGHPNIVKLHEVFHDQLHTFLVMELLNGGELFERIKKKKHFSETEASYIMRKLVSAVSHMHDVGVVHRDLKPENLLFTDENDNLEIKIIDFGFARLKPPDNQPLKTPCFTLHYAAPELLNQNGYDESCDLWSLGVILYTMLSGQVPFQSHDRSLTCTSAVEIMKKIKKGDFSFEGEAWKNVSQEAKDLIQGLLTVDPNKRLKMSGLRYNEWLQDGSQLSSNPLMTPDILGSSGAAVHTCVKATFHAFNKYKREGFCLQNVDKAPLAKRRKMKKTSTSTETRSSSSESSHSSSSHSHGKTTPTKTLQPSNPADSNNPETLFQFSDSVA
Consider `O=C(Nc1cccc(Nc2nccc(Nc3cccc(C(F)(F)F)c3)n2)c1)C1CC1`, for which the residual activity turned out to be 101%.

Regarding `Nc1cccc(-c2cc3c(Oc4cccc(O)c4)ncnc3[nH]2)c1`, the residual activity was 83.6%.

With `CC[n+]1c(/C=C/N(C)c2ccccc2)n(-c2ccccc2)c2ccc(-c3nc4ccccc4s3)cc21`, the residual activity amounted to 111%.

The next experiment has as its target EPHA2 (human) (UniProt P29317). Described as above. Particulars: compound 0.5 µM; ATP 10 µM.
Take `O=C(Nc1cccc(Nc2nccc(Nc3cccc(C(F)(F)F)c3)n2)c1)C1CC1`: the residual activity was 87.3%.

For `Nc1cccc(-c2cc3c(Oc4cccc(O)c4)ncnc3[nH]2)c1`, the residual activity was determined as 48.2%.

`CC[n+]1c(/C=C/N(C)c2ccccc2)n(-c2ccccc2)c2ccc(-c3nc4ccccc4s3)cc21`: the residual activity was found to be 100%.

A further experiment concerns the target DCLK2 (human) (UniProt Q8N568). Described as above. Conditions: compound 0.5 µM; ATP 10 µM.
Take `O=C(Nc1cccc(Nc2nccc(Nc3cccc(C(F)(F)F)c3)n2)c1)C1CC1`: the residual activity turned out to be 97.4%.

For `Nc1cccc(-c2cc3c(Oc4cccc(O)c4)ncnc3[nH]2)c1`, the residual activity worked out at 89%.

As to `CC[n+]1c(/C=C/N(C)c2ccccc2)n(-c2ccccc2)c2ccc(-c3nc4ccccc4s3)cc21`, the residual activity turned out to be 102%.

The target in a further experiment is RPS6KA1 KD1 KD2 (human) (UniProt Q15418). The experiment is described as above. Particulars: compound 0.5 µM; ATP 10 µM.
As to `O=C(Nc1cccc(Nc2nccc(Nc3cccc(C(F)(F)F)c3)n2)c1)C1CC1`, the residual activity is 92.8%.

Take `Nc1cccc(-c2cc3c(Oc4cccc(O)c4)ncnc3[nH]2)c1`: the residual activity came to 105%.

Regarding `CC[n+]1c(/C=C/N(C)c2ccccc2)n(-c2ccccc2)c2ccc(-c3nc4ccccc4s3)cc21`, the residual activity stood at 104%.

These data come from the kinase profiling compilation of Christmann-Franck et al. (2016).
